Assay [1] deals with IL-1 production in LPS-stimulated PBMCs. The assay can be described thus: Inhibition of IL-1 production in LPS-stimulated PBMCs ("cell"). It is filed as cell-based, human. To be noted: Homo sapiens, PBMC. On the procedure:
(§1) Inhibitors were serially diluted in DMSO from a 20 mM stock. At least 6 serial dilutions were prepared. Then 4× inhibitor stocks were prepared by adding 4 μl of an inhibitor dilution to 1 ml of RPMI1640 medium/10% fetal bovine serum. The 4× inhibitor stocks contained inhibitor at concentrations of 80 μM, 32 μM, 12.8 μM, 5.12 μM, 2.048 μM, 0.819 μM, 0.328 μM, 0.131 μM, 0.052 μM, 0.021 μM etc. The 4× inhibitor stocks were pre-warmed at 37° C. until use.
(§2) Fresh human blood buffy cells were separated from other cells in a Vacutainer CPT from Becton & Dickinson (containing 4 ml blood and enough DPBS without Mg^2+/Ca^2+ to fill the tube) by centrifugation at 1500×g for 15 min. Peripheral blood mononuclear cells (PBMCs), located on top of the gradient in the Vacutainer, were removed and washed twice with RPMI1640 medium/10% fetal bovine serum. PBMCs were collected by centrifugation at 500×g for 10 min. The total cell number was determined using a Neubauer Cell Chamber and the cells were adjusted to a concentration of 4.8×10^6 cells/ml in cell culture medium (RPMI1640 supplemented with 10% fetal bovine serum).
(§3) We placed 100 μl of cell suspension or whole blood in each well of a 96-well cell culture plate. Then we added 50 μl of the 4× inhibitor stock to the cells. Finally, we added 50 μl of a lipopolysaccharide (LPS) working stock solution (16 ng/ml in cell culture medium) to give a final concentration of 4 ng/ml LPS in the assay. The total assay volume of the vehicle control was also adjusted to 200 μl by adding 50 μl cell culture medium. The PBMC cells or whole blood were then incubated overnight (for 12–15 hours) at 37° C./5% CO2 in a humidified atmosphere.
(§4) The next day the cells were mixed on a shaker for 3–5 minutes before centrifugation at 500×g for 5 minutes. Cell culture supernatants were harvested and analyzed by ELISA for levels of IL-1b (R & D Systems, Quantikine kits, #DBL50), TNF-α (BioSource, #KHC3012), IL-6 (Endogen, #EH2-IL6) and IL-8 (Endogen, #EH2-IL8) according to the instructions of the manufacturer. The ELISA data were used to generate dose-response curves from which IC50 values were derived.

Assay [2] has as its system TNF production in LPS-stimulated PBMCs. Kind of assay: Inhibition of TNF production in LPS-stimulated PBMCs ("cell"). It is filed as cell-based, human. Conditions: Homo sapiens, PBMC. Here is the method: as §1, §2, §3, §4
Assay [3] addresses activated p38 (Homo sapiens, UniProt Q16539). The assay can be described thus: Inhibition of phosphorylation of EGF receptor peptide ("kinase"). It is filed as biochemical. To be noted: inhibition of phosphorylation of EGF receptor peptide by activated p38. Here is the method:
This assay was carried out in the presence of 10 mM MgCl2, 25 mM β-glycerophosphate, 10% glycerol and 100 mM HEPES buffer at pH 7.6. […] The stock solution was aliquotted into vials. A fixed volume of DMSO or inhibitor in DMSO (final concentration of DMSO in reaction was 5%) was introduced to each vial, mixed and incubated for 15 minutes at room temperature. EGF receptor peptide, […], a phosphoryl acceptor in p38-catalyzed kinase reaction (1), was added to each vial to a final concentration of 200 μM. The kinase reaction was initiated with ATP (100 μM) and the vials were incubated at 30° C. After 30 minutes, the reactions were quenched with equal volume of 10% trifluoroacetic acid (TFA).
The phosphorylated peptide was quantified by HPLC analysis. Separation of phosphorylated peptide from the unphosphorylated peptide was achieved on a reverse phase column (Deltapak, 5 μm, C18 100D, part no. 011795) with a binary gradient of water and acteonitrile, each containing 0.1% TFA.

As usually defined, the IC50 is the concentration that inhibits the measured activity by half. Low values mean greater potency in that assay, high ones weaker potency in that assay.

Chain of activated p38 (Q16539 whole entry): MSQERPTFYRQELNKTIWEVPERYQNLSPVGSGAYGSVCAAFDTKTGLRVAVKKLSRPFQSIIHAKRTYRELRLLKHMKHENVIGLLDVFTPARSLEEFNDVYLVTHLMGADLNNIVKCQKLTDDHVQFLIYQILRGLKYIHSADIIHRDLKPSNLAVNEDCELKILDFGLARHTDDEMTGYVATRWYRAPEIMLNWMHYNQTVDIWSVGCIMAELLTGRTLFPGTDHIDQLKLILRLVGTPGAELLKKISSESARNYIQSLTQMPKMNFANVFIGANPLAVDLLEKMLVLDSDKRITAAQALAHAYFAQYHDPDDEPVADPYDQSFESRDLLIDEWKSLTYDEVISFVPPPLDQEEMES

Regarding `O=c1ncn2nc(Sc3ccccc3)ccc2c1-c1ccccc1Cl` [Compound 7], the 50% inhibitory concentration (IC50) in assay [1] is ≥ 500 nM; in assay [2], ≥ 500 nM; in assay [3], ≥ 1000 nM.

For the molecule `Cc1ccccc1-c1c(=O)ncn2nc(Sc3ccccc3)ccc12` [Compound 8], the values for the IC50 in assay [1], in assay [2] and in assay [3] were ≥ 500 nM, ≥ 500 nM and ≥ 1000 nM, respectively. On to `O=c1ncn2nc(Sc3ccccc3)ccc2c1-c1ccc(Cl)c(Cl)c1` [Compound 9], for which the 50% inhibitory concentration (IC50) in assay [1] was ≥ 500 nM; in assay [2], ≥ 500 nM; in assay [3], ≥ 1000 nM.

As for `COc1ccccc1-c1c(=O)ncn2nc(Sc3ccccc3)ccc12` [Compound 11], the half-maximal inhibitory concentration (IC50) in assay [1] is ≥ 500 nM; in assay [2], ≥ 500 nM; in assay [3], ≥ 1000 nM. Consider `Cc1c(Sc2ccccc2)nn2cnc(=O)c(-c3c(Cl)cccc3Cl)c2c1C` [Compound 13], for which the half-inhibitory concentration (IC50) was ≥ 500 nM in assay [1], ≥ 500 nM in assay [2] and ≥ 1000 nM in assay [3]. Regarding `Cc1ccc(Sc2ccc3c(-c4c(Cl)cccc4Cl)c(=O)ncn3n2)cc1` [Compound 14], the IC50 in assay [1] is 100 to 500 nM; in assay [2], ≥ 500 nM; in assay [3], ≥ 1000 nM. For `Cc1cccc(Sc2ccc3c(-c4c(Cl)cccc4Cl)c(=O)ncn3n2)c1` [Compound 15], in that order: 100 to 500 nM, 100 to 500 nM and ≥ 1000 nM.

Take `O=c1ncn2nc(Sc3ccc(Cl)c(Cl)c3)ccc2c1-c1c(Cl)cccc1Cl` [Compound 16]: the 50% inhibitory concentration (IC50) was ≥ 500 nM in assay [1], 100 to 500 nM in assay [2] and 100 to 1000 nM in assay [3]. For `O=c1ncn2nc(Sc3ccccc3)ccc2c1-c1c(F)cccc1F` [Compound 17], in that order: ≥ 500 nM, ≥ 500 nM and ≥ 1000 nM. For `CC(C)c1ccccc1Sc1ccc2c(-c3c(Cl)cccc3Cl)c(=O)ncn2n1` [Compound 18] the same measures were ≥ 500 nM, ≥ 500 nM and ≥ 1000 nM. For the molecule `NC(=O)C(c1ccc(C(O)c2ccccc2)cn1)c1c(Cl)cccc1Cl` (centres unmarked) [Compound 208], the IC50 in assay [1] lay in the range of 100 to 500 nM. On the same count and under the same terms, then `NC(=O)C(c1ccc(C(=O)c2ccccc2)cn1)c1c(Cl)cccc1Cl` (centres unmarked) [Compound 209], with ≥ 500 nM. Turning to `NC(=O)C(c1cccc(-c2cccc(F)c2)n1)c1c(F)cccc1Cl` (centres unmarked) [Compound 344], the IC50 in assay [3] was ≥ 1000 nM.

Take `COc1ccccc1-c1cccc(C(C(N)=O)c2c(F)cccc2Cl)n1` (centres unmarked) [Compound 345]: in assay [3], the half-maximal inhibitory concentration (IC50) was ≥ 1000 nM.

As to `NC(=O)C(c1cccc(-c2ccc(Cl)s2)n1)c1c(F)cccc1Cl` (centres unmarked) [Compound 347], in assay [3], the IC50 was ≥ 1000 nM. Still for that read-out and setting: then `NC(=O)C(c1cccc(-c2ccccc2C=O)n1)c1c(F)cccc1Cl` (centres unmarked) [Compound 348], with ≥ 1000 nM. Consider `COc1ccc(-c2cccc(C(C(N)=O)c3c(Cl)cccc3Cl)n2)cc1` (centres unmarked) [Compound 352], for which the IC50 in assay [1] was ≥ 500 nM; in assay [3], ≥ 1000 nM. With `NC(=O)C(c1cccc(-c2ccc3ccccc3c2)n1)c1c(Cl)cccc1Cl` (centres unmarked) [Compound 354], the IC50 in assay [3] is ≥ 1000 nM.

Consider `NC(=O)C(c1cccc(-c2cc3ccccc3o2)n1)c1c(Cl)cccc1Cl` (centres unmarked) [Compound 355], for which the IC50 in assay [3] was ≥ 1000 nM. On the same count and under the same terms, next, `NC(=O)C(c1cccc(-c2cc3ccccc3s2)n1)c1c(Cl)cccc1Cl` (centres unmarked) [Compound 356]: ≥ 1000 nM. Regarding `NC(=O)C(c1cccc(-c2occc2C=O)n1)c1c(F)cccc1Cl` (centres unmarked) [Compound 357], the IC50 in assay [3] is ≥ 1000 nM. On to `NCCNCc1ccccc1-c1cccc(C(C(N)=O)c2c(Cl)cccc2Cl)n1` (centres unmarked) [Compound 359], for which the concentration for half-maximal inhibition (IC50) in assay [3] was ≥ 1000 nM. Same read-out and setting: then `NC(=O)C(c1cccc(-c2ccccc2CNCC(O)CO)n1)c1c(Cl)cccc1Cl` (centres unmarked) [Compound 360], with ≥ 1000 nM; and `NC(=O)C(c1cccc(-c2ccccc2)n1)c1c(F)cccc1F` (centres unmarked) [Compound 366], with ≥ 1000 nM.

Molecule `NC(=O)C(c1cccc(-c2ccccc2C(F)(F)F)n1)c1c(Cl)cccc1Cl` (centres unmarked) [Compound 374] had a half-inhibitory concentration (IC50) in assay [3] of 100 to 1000 nM. On the same count and under the same terms, next, `NC(=O)C(c1cccc(-c2ccccc2Cl)n1)c1c(Cl)cccc1Cl` (centres unmarked) [Compound 375]: ≤ 100 nM. Still for that read-out and setting: then `Cc1cccc(-c2cccc(C(C(N)=O)c3c(Cl)cccc3Cl)n2)c1C` (centres unmarked) [Compound 376], with ≤ 100 nM; and `CCc1ccccc1-c1cccc(C(C(N)=O)c2c(Cl)cccc2Cl)n1` (centres unmarked) [Compound 377], with ≤ 100 nM.

Consider `NC(=O)C(c1cccc(-c2ccccc2CCO)n1)c1c(Cl)cccc1Cl` (centres unmarked) [Compound 378], for which, in assay [3], the half-inhibitory concentration (IC50) is ≤ 100 nM.

As to `NC(=O)C(c1cccc(-c2cccc(C(F)(F)F)c2)n1)c1c(Cl)cccc1Cl` (centres unmarked) [Compound 379], the IC50 in assay [3] is ≤ 100 nM. On to `NC(=O)C(c1cccc(-c2cccc(CO)c2)n1)c1c(Cl)cccc1Cl` (centres unmarked) [Compound 380], for which the IC50 in assay [3] was in the range of 100 to 1000 nM. Same read-out and setting: next, `Cc1cccc(C)c1C(C(N)=O)c1cccc(-c2ccccc2)n1` (centres unmarked) [Compound 381]: 100 to 1000 nM; `NC(=O)C(c1cccc(-c2cccc(Cl)c2Cl)n1)c1c(Cl)cccc1Cl` (centres unmarked) [Compound 382]: ≤ 100 nM. In the case of `NC(=O)C(c1cccc(-c2ccccc2F)n1)c1c(Cl)cccc1Cl` (centres unmarked) [Compound 383], in assay [3], the half-maximal inhibitory concentration (IC50) is ≤ 100 nM. Same read-out and setting: then `NC(=O)C(c1cncc(-c2ccccc2)n1)c1c(Cl)cccc1Cl` (centres unmarked) [Compound 384], with 100 to 1000 nM. Same read-out and setting: next, `COCOc1ccccc1-c1cccc(C(C(N)=O)c2c(Cl)cccc2Cl)n1` (centres unmarked) [Compound 385]: 100 to 1000 nM. With `NC(=O)C(c1cccc(-c2ccccc2O)n1)c1c(Cl)cccc1Cl` (centres unmarked) [Compound 386], the IC50 in assay [3] was ≥ 1000 nM. Same read-out and setting: next, `NC(=O)C(c1cccc(-c2cc(C(F)(F)F)cc(C(F)(F)F)c2)n1)c1c(Cl)cccc1Cl` (centres unmarked) [Compound 387]: ≥ 1000 nM. On the same count and under the same terms, then `NC(=O)C(c1cccc(-c2cc(F)c(F)c(F)c2)n1)c1c(Cl)cccc1Cl` (centres unmarked) [Compound 388], with ≤ 100 nM; and `COCOc1cc(F)ccc1-c1cccc(C(C(N)=O)c2c(Cl)cccc2Cl)n1` (centres unmarked) [Compound 389], with 100 to 1000 nM. The same measure, in the same setting: next, `NC(=O)C(c1cccc(-c2ccc(F)cc2O)n1)c1c(Cl)cccc1Cl` (centres unmarked) [Compound 390]: ≥ 1000 nM; `NC(=O)C(c1cccc(-c2ccc(F)cc2C(F)(F)F)n1)c1c(Cl)cccc1Cl` (centres unmarked) [Compound 391]: 100 to 1000 nM; `NC(=O)C(c1cccc(-c2cc(Cl)cc(Cl)c2)n1)c1c(Cl)cccc1Cl` (centres unmarked) [Compound 392]: 100 to 1000 nM. Take `COCOCc1cc(F)ccc1-c1cccc(C(C(N)=O)c2c(Cl)cccc2Cl)n1` (centres unmarked) [Compound 393]: the half-maximal inhibitory concentration (IC50) in assay [3] lay in the range of 100 to 1000 nM. Turning to `NC(=O)C(c1cccc(-c2ccc(F)cc2CO)n1)c1c(Cl)cccc1Cl` (centres unmarked) [Compound 394], the IC50 in assay [3] was ≤ 100 nM. With `Cc1cc(-c2cccc(C(C(N)=O)c3c(Cl)cccc3Cl)n2)ccc1F` (centres unmarked) [Compound 395], in assay [3], the IC50 was ≤ 100 nM. The same measure, in the same setting: then `NC(=O)C(c1cccc(-c2ccc(F)cc2F)n1)c1c(Cl)cccc1Cl` (centres unmarked) [Compound 396], with ≤ 100 nM. On the same count and under the same terms, then `NC(=O)C(c1cccc(-c2ccccc2)n1)c1cc2c(cc1Cl)OCO2` (centres unmarked) [Compound 397], with ≥ 1000 nM; and `NC(=O)C(c1cccc(-c2c(F)cc(F)cc2F)n1)c1c(Cl)cccc1Cl` (centres unmarked) [Compound 399], with ≤ 100 nM. Still for that read-out and setting: next, `Cc1c(Cl)cccc1-c1cccc(C(C(N)=O)c2c(Cl)cccc2Cl)n1` (centres unmarked) [Compound 1301]: ≤ 100 nM.
